Assay results: PMC5481773, “Structural insights into the function of ZRANB3 in replication stress response” (Nature Communications, 2017)

Columns and labels:
PCNA = PCNA pull-down with biotinylated PIP box and APIM motif peptides; type: binding; conditions: biotinylated peptides on streptavidin beads, recombinant PCNA, Western blotting with PCNA antibody (Fig. 4c)
Description: Figure 4 Stimulation of the ZRANB3 nuclease activity by PCNA. (a) Stimulation of FEN1 and ZRANB3 nuclease activities by PCNA. FEN1 or ZRANB3 nucleases were incubated with the DNA substrate and increasing concentrations of PCNA (0.375, 0.75, 1.5 and 3 μM), in the presence (ZRANB3) or absence (FEN1) of ATP. (b) Domain structure of ZRANB3. Conservation of the PIP box and the APIM motif residues among ZRANB3 proteins are shown in the alignments below. Mutated conserved residues in the PIP box and the APIM motif are indicated by arrows. (c) Interactions of the ZRANB3 PIP box and APIM motif with PCNA. Biotinylated PIP box and APIM motif peptides were bound to streptavidin beads and incubated with recombinant PCNA. The interaction was assayed by Western blotting with PCNA antibody. […] (d) Effect of PCNA (0.375, 0.75, 1.5 and 3 μM) on ZRANB3 nuclease activity assayed with the wild-type ZRANB3 and ZRANB3 PCNA binding mutants (ZRANB3-PIP*, ZRANB3-ΔAPIM and ZRANB3-PIP*ΔAPIM). (e) Quantification of nuclease activities in the presence of increasing concentrations of PCNA. […]
Biotinylated PIP-box and APIM-motif peptides were synthesized by Genscript. […] The beads were subsequently washed with the same buffer to remove unbound PCNA, after which they were boiled in the SDS-PAGE loading buffer, and analysed by anti-PCNA Western blotting (ab18197, 1:1,000 dilution).

ZRANB3 = ZRANB3 nuclease assay with non-hydrolysable ATP analogues; type: biochemical, Human; conditions: wild-type ZRANB3, fluorescently labelled DNA substrate, native PAGE (Fig. 3d)
Source text: Figure 3 Characterisation of the ZRANB3 HNH active site. (a) Overlay of the T4 endonuclease VII (yellow) and the ZRANB3 HNH (white) structures. […] (b) Overlay of the T4 endonuclease VII (yellow, labels in italics) and the ZRANB3 HNH (white) structures. Mg^2+ ion in T4 endonuclease is shown as a purple sphere. His1021, Asp1020 and His1045 in the HNH structure overlap with the active site residues of T4 endonuclease VII. (c) Nuclease assay with the wild-type and mutant ZRANB3 proteins in the presence and absence of ATP. Reactions were analysed by native poly-acrylamide gel electrophoresis. Indicated are mobilities of the fluorescently labelled DNA substrate and product. (d) Nuclease assay with non-hydrolysable ATP homologues. Shown are controls with the wild-type ZRANB3 and the ATPase dead K65R mutant in the presence of ATP.
Oligonucleotides used in the nuclease assays (5′-[…]-[…]-3′ and Cy3 5′-end-labelled 5′-[…]-[…]-3′) were incubated in 10 mM Tris-HCl pH 7.5, 50 mM NaCl for 3 min at 94 °C, after which the reactions were allowed to gradually cool down.
The nuclease assays with ZRANB3 was performed essentially as described in ref. [9]. Briefly, reaction mixtures containing the indicated nuclease (200 nM) and fluorescently labelled DNA substrate (10 nM) in 10 μl of reaction buffer (50 mM Tris-HCl; 50 mM NaCl; 5 mM MgCl2; 2 mM ATP (Sigma); pH 7.5) were incubated at 30 °C for 60 min. The reactions were stopped by incubation with 0.1% SDS and 4 mg ml^−1 of proteinase K at 30 °C for 45 min. The reactions were then mixed with sucrose (10% final concentration) and resolved in a 10% polyacrylamide gel in 0.5 × TBE buffer (45 mM Tris-borate, 1 mM EDTA; pH 7.5). The fluorescent DNA species were visualized and quantified using Pharos Mx imager and Quantity one software (BioRad).

| Compound | Interaction with PCNA (pull-down) (PCNA) | ZRANB3 endonuclease activity on substitution of ATP by non-hydrolysable ATP analogue (ZRANB3) |
| --- | --- | --- |
| APIM*: biotinylated ZRANB3 APIM motif peptide with F1075A mutation (pull-down) | abrogated the interaction with PCNA |  |
| Nc1ncnc2c1ncn2[C@@H]1O[C@H](COP(=O)(O)OP(=O)(O)CP(=O)(O)O)[C@@H](O)[C@H]1O [AMP-PCP] |  | complete loss of activity |
| Nc1ncnc2c1ncn2[C@@H]1O[C@H](COP(=O)(O)OP(=O)(O)NP(=O)(O)O)[C@@H](O)[C@H]1O [AMP-PNP] |  | complete loss of activity |
| Nc1ncnc2c1ncn2[C@@H]1O[C@H](CO[P@](=O)(O)O[P@](=O)(O)O[P@@](=O)(O)S)[C@@H](O)[C@H]1O [ATPγS] |  | complete loss of activity |
